# Measurements from patent publication US4442098A, “Pentacyclic derivatives of piperazine” (Beecham Group Limited, priority 1980, dated 1984).
# Where two headings read alike, the source gives them in different places.
# Test system: central 5HT
# Assay: inhibition of behavioural symptoms (forepaw tapping, head jerks, splayed limbs) induced by 5-methoxy-N,N-dimethyltryptamine in mice
# Type: in vivo, mice (male CD-1 Charles Rine)
# Conditions: 1 h pretreatment, 10 mg/kg ip 5-methoxy-N,N-dimethyltryptamine; for ED50: Mus musculus, 1 h, read-out: ED50 (dose of compound inhibiting the symptoms by 50%)
# Protocol: Mice (.male. CD^-1 Charles Rine) are pretreated with the compounds 10 animals/group under investigation and 1 h later one group is injected with 10 mg/kg ip 5-methoxy-N,N-dimethyltryptamine (Sigma). The symptoms of forepaw tapping movements, head jerks and splayed limbs are scored: 1, present; 0, absent, giving a maximum score of 3/mouse or 30/group. Results are expressed as the percentage inhibition compared to the group treated with 5-methoxy-N,N-dimethyl tryptamine alone. The dose of compound inhibiting the symptoms by 50% is determined graphically.
structure (smiles),measurement,setting,value
"CN1CC2CC(O)c3cccc4c3N2C(C1)c1ccccc1C4 (single isomer, unassigned) [Compound 3, 1,2,3,3a,4,5,9,13b-Octahydro-2-methyl-2-benzazepino[4,3,2-ij]pyrazino[1,2-a]quinolin-5-ol]",ED50,"po, p.o.",0.65 mg/kg
"CN1CC2CC(O)c3cccc4c3N2C(C1)c1ccccc1C4 (single isomer, unassigned) [Compound 4, 1,2,3,3a,4,5,9,13b-Octahydro-2-methyl-2-benzazepino[4,3,2-ij]pyrazino[1,2-a]quinolin-5-ol]",ED50,"ip, i.p.",0.3 mg/kg
"CN1CC2CC(=O)c3cccc4c3N2C(C1)c1ccccc1C4 (stereo not shown) [Compound 1, 1,2,3,3a,4,5,9,13b-Octahydro-2-methyl-2-benzazepino[4,3,2-ij]pyrazino[1,2-a]quinolin-5-one]",ED50,"po, p.o.",12 mg/kg
"CN1CC2CCc3cccc4c3N2C(C1)c1ccccc1C4 (stereo not shown) [Compound 6, 1,2,3,3a,4,5,9,13b Octahydro-2-methyl-2-benzazepino[4,3,2-ij]pyrazino[1,2-a]quinoline]",ED50,"po, p.o.",10 mg/kg
"CN1CC2CCc3cccc4c3N2C(C1)c1ccccc1C4 (stereo not shown) [Compound 7, 1,2,3,3a,4,5,9,13b-octahydro-2-methyl-2-benzazepino[4,3,2-ij]pyrazino[1,2-a]quinoline]",ED50 (dose of compound inhibiting the symptoms by 50%),"p.o., 60 min",13 mg/kg
"CN1CC2CC(=NO)c3cccc4c3N2C(C1)c1ccccc1C4 (stereo not shown) [Compound 8, 1,2,3,3a,4,5,9,13b-octahydro-2-methyl-2-benzazepino[4,3,2-ij]-pyrazino[1,2-a]-5-oxaminoquinoline]",ED50,"po, p.o.",3 mg/kg
"CN1CC2CC(=O)c3cccc4c3N2C(C1)c1ccccc1O4 (stereo not shown) [Compound 16, 2-methyl,1,3,4,14b-tetrahydro 4,6-ethano-2H-dibenzo[bf]pyrazino[1,2-d][1,4]oxazepin-15-one]",ED50,"po, p.o.",10 mg/kg
